Source: patent US7173063B1, “Topoisomerase poisons for the treatment of proliferative disorders” (Fred Hutchinson Cancer Research Center, priority 2000, dated 2007)
Like-named read-outs stand apart in the source and are kept apart here.

Legend:
Type in all cases: cell-based
[1] = tested on: DSB repair defective rad50 and rad52 strains of Saccharomyces cerevisiae; conditions: for toxicity in wild-type strains: highest concentration used
Description: (§1) The strains are derived from the A364a genetic background, with the exception of BY4705, which is derived from the S288C background. Gene disruptions were generated by PCR fragment directed replacement (Baudin, et al., Nucleic Acids Research 21: 3329–30 (1993), Guldener, et al., Nucleic Acids Research 24: 2519–24 (1996)). Yeast overexpressing topoisomerase II was constructed by a PCR fragment directed promoter replacement of the topoisomerase II promoter with the yeast GPD promoter flanked upstream by the URA3 marker. All strains (except BY4705) bear the pleitropic drug sensitizing mutations erg6, pdr1, and pdr3 (Balzi, et al., Journal of Bioenergetics & Biomembranes 27: 71–6 (1995), Delaveau, et al, Molecular & General Genetics 244: 501–11 (1994), Gaber, et al., Molecular & Cellular Biology 9: 3447–56 (1989), Saunders, et al., Canadian Journal of Genetics & Cytology, 24: 493–503 (1982). Subik, et al, Current Genetics 10: 665–70 (1986)). The haploid yeast strain BY4705 (Brachmann, et al., Yeast 14: 115–32 (1998)) was used in the experiments described in FIG. 5. Plasmids expressing yeast or human topoisomerase I genes under the GAL promoter (Knab, et al., Journal of Biological Chemistry 268: 22322–30 (1993). Knab, et al., Journal of Biological Chemistry 270: 6141–8 (1995)) were transformed into BY4705 using standard procedures.
(§2) Yeast toxicity assays were performed essentially as follows: Exponentially growing cultures of the appropriate strains were diluted in synthetic complete media to a concentration of 7.4×10^4 cells/mL, and aliquots (135 μL) were transferred to each well of clear flat-bottomed 96 well plates. Compounds were added in duplicate or triplicate as 15 μL of the appropriate dilution in 5% DMSO. A 15 μL portion of 5% DMSO was added to control wells. […] Cell growth (OD660) in treated wells was plotted as a percentage of the growth in at least four averaged solvent control wells for the same strain. Camptothecin sodium salt (camptothecin Na) was the agent used in all yeast assays as standard.

Topo I = target: T1, Topo I (Saccharomyces cerevisiae, UniProt P04786); assay: Yeast toxicity in strains with or without Topo I (rad50 vs rad50 top1); conditions: rad50 top1 vs rad50 strain
T1 construct: yeast strains that are DSB repair defective, with (rad50) or without Topo I (rad50, top1), and a wild type control (wt); endogenous in cells; host or cells: S. cerevisiae A364a background, rad50 (erg6 pdr1 pdr3), compared with rad50 top1
T1 sequence (P04786 1-769): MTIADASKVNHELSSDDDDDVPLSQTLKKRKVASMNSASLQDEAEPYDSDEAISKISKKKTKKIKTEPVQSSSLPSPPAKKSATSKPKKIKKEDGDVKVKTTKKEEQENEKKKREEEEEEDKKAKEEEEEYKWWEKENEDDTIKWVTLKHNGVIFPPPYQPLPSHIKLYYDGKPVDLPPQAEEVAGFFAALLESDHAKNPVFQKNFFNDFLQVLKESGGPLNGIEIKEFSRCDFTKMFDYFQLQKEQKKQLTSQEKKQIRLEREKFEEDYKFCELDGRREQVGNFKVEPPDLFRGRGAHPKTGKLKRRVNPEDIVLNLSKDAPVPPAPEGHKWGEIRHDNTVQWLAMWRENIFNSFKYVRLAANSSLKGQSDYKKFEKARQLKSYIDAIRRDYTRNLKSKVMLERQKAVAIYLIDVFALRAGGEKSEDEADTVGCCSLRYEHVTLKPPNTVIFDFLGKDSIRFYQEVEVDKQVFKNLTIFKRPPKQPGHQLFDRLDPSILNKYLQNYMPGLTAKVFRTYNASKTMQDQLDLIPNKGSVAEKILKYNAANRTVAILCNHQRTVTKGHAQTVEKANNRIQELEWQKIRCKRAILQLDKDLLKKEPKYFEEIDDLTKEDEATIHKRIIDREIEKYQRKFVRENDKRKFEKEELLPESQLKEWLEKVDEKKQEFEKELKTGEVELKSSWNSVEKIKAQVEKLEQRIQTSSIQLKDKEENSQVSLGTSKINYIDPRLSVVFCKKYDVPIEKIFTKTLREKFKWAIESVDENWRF
Description: as §1
Yeast toxicity assays were performed essentially as follows: Exponentially growing cultures of the appropriate strains were diluted in synthetic complete media to a concentration of 7.4×10^4 cells/mL, and aliquots (135 μL) were transferred to each well of clear flat-bottomed 96 well plates. Compounds were added in duplicate or triplicate as 15 μL of the appropriate dilution in 5% DMSO. A 15 μL portion of 5% DMSO was added to control wells. Assay plates were incubated at 30° C. for approximately seven generations growth in solvent control wells (as monitored by OD660, typically 21–24 hours), then the OD660 of the cultures was measured in a microplate reader (Bio-Tek). […]

yeast Topo I = target: T2, yeast Topo I (Saccharomyces cerevisiae, UniProt P04786); assay: Toxicity in yeast overexpressing yeast Topo I (yTOP1) or ytop1-vac mutant; conditions: GAL promoter, galactose-induced, vs vector
T2 construct: expressed in transfected cells; host or cells: S. cerevisiae BY4705 (S288C background), plasmid pyTOP1 under the GAL promoter, vector pRS416
T2 sequence (P04786 1-769): T1 sequence (P04786 1-769)
Description: as §1, §2
In this regard, the sensitivity of yeast strains overexpressing either human or yeast topoisomerase I genes (hTOP1 or yTOP1, respectively) under the control of the inducible GAL promoter (see, for example, Knab, et al., Journal of Biological Chemistry 268: 22322–30 (1993); and Knab, et al., Journal of Biological Chemistry 270: 6141–8 (1995)) were used. Additionally, the sensitivity of yeast overexpressing the Topo I-VAC mutant enzyme, containing two amino acid substitutions (htop1-vac and ytop1-vac) that render topoisomerase I insensitive to the action of camptothecin were also examined (see, for example, Knab, et al., Journal of Biological Chemistry 268: 22322–30 (1993); and Knab, et al., Journal of Biological Chemistry 270: 6141–8 (1995)).

[2] = relative growth (OD660) vs solvent control

| Structure (SMILES) | profile of selective toxicity: toxic to rad50 and rad52 strains, not toxic in rad14 or rad18 strains [1] | effect of deletion of the TOP1 gene on toxicity (Topo I) | influence of sensitizing mutations erg6 pdr1 and pdr3 on yeast sensitivity [1] | toxicity in wild-type strains [1] | profile of selective toxicity: toxic to rad50 and rad52 strains, not toxic in rad14 or rad18 strains [1, 2] | effect of yTOP1 overexpression on toxicity (yeast Topo I) |
| --- | --- | --- | --- | --- | --- | --- |
| CC(=O)[C@]1(O)Cc2c(O)c3c(c(O)c2[C@@H](O[C@H]2C[C@H](N)[C@H](O)[C@H](C)O2)C1)C(=O)c1ccccc1C3=O [idarubicin, reference compound] | Agents with this profile include | little effect |  |  |  |  |
| O=C(CCl)Nc1ccc(C(=O)N/N=C/c2ccc(Cl)cc2)cc1 [compound Ia] |  | greatly reduced | strongly influenced | neither compounds Ia or IIa produce toxicity | fit the profile for selective toxicity | Little or no accentuation |
| O=c1c(Cl)c(Cl)cnn1CCCl [compound IIa] |  | greatly reduced |  | neither compounds Ia or IIa produce toxicity | fit the profile for selective toxicity | accentuates the toxicity |
